The values below come from the Deep4Chem optical property database.

Molecules are shown by their SMILES. Several values for one entry are separate records, joined by “and”; a condition that tells them apart may be missing. Equal values may be shown once.

This series is described as follows: solvent given as SMILES.

Regarding `C#CCNC1=C2C=CC=[N+]2[B-](F)(F)n2cccc21`, the fluorescence lifetime is 6.36 ns and 5.34 ns (in C1CCCCC1); 4.92 ns (in CC(C)=O); 6.02 ns (in CCCCO); 5.16 ns (in CCCO); 4.14 ns and 3.81 ns (in CCO); 5.13 ns (in CCOC(C)=O). The compound also displayed a fluorescence lifetime (in CN(C)C=O) of 2.98 ns; a fluorescence lifetime (in CO) of 3.22 ns; a fluorescence lifetime (in CS(C)=O) of 1.73 ns; a fluorescence lifetime (in Cc1ccccc1) of 6.56 ns; a fluorescence lifetime (in ClC(Cl)Cl) of 5.29 ns; a fluorescence lifetime (in OCC(F)(F)F) of 6.34 ns. In addition, the fluorescence lifetime (in c1ccccc1) is 6.28 ns.

As to `Cc1cc(C)c(-c2nnc(-c3ccc(-n4c5ccccc5c5ccccc54)c(C)c3)o2)c(C)c1`, the fluorescence lifetime (in CCO) amounted to 1.94 ns.

Take `CCc1c(C(=O)OC)c(C(=O)OC)c2ccc(-c3ccccc3)nn12`: the fluorescence lifetime (in CCCCCC) was 21.1 ns.

Take `CC\C=C/C=C/C=C/C=C\CCCCCCCC(=O)O`: the fluorescence lifetime was found to be 3.2 ns (in C1COCCO1); 4.5 ns (in CCCCCC); 5.2 ns (in CCCCCCCCCC); 2.5 ns (in CCCCO); 5.1 ns (in CCOCC); 1.3 ns (in CO). This compound also returned a fluorescence lifetime (in ClC(Cl)Cl) of 1.5 ns.

As to `COC(=O)c1nc(Cl)c(-c2ccccc2)o1`, the fluorescence lifetime (in C1CCCCC1) is 0.67 ns.

Regarding `CCOC(=O)/N=c1/oc2cc(OC)ccc2cc1C#N`, where the note is “in ClCCl”, the fluorescence lifetime is 0.8 ns.

In the case of `CCCC(=O)c1c2c(c(C(=O)CCC)c3c1OC(CC(=O)OC)(C(=O)OC)O3)OCO2`, the fluorescence lifetime is 22.5 ns (in CC#N); 18.5 ns (in CCCCCC); 17.7 ns (in CCO); 11.9 ns (in CO); 25.1 ns (in ClCCl).

As to `CCN(CC)c1ccc2c(-c3ccccc3C(=O)O)c3c([o+]c2c1)/C(=C/c1ccc(N(C)C)cc1)CCC3`, under “in ClCCl”, the fluorescence lifetime was found to be 0.25 ns.

Compound `Cn1c(=O)c(/N=N/c2ccc(Nc3ccc([N+](=O)[O-])cc3S(=O)(=O)O)cc2)c(O)c2ccccc21` had a fluorescence lifetime (in CS(C)=O) of 0.03 ns.

Under “in CC#N”, `c1ccc(-[c+]2c3ccccc3sc3ccccc32)cc1` showed a fluorescence lifetime of 1 ns.

As to `Cc1ccc(-c2ccc(/C=C/c3cccn3C)cn2)nc1`, the fluorescence lifetime (in C1COCCO1) stood at 0.59 ns; the fluorescence lifetime (in CC#N) amounted to 0.51 ns; the fluorescence lifetime (in CCCCCC) is 0.86 ns; the fluorescence lifetime (in CCO) worked out at 0.92 ns; the fluorescence lifetime (in CN(C)C=O) came to 0.65 ns; the fluorescence lifetime (in CO) stood at 1 ns. In addition, the fluorescence lifetime (in CS(C)=O) worked out at 0.64 ns, the fluorescence lifetime (in Cc1ccccc1) was found to be 0.56 ns, the fluorescence lifetime (in ClC(Cl)Cl) turned out to be 0.62 ns and the fluorescence lifetime (in c1ccccc1) turned out to be 0.51 ns.

Consider `CS1(C)C(/C=C/C2=C(c3ccc(C(=O)O)cc3)C(=C/C=C3/N(CCCCS(=O)(=O)[O-])c4ccccc4S3(C)C)/CCC2)=[N+](CCCCS(=O)(=O)[O-])c2ccccc21`, for which the fluorescence lifetime runs as follows: (in CC(C)=O) 1.08 ns; (in CCO) 0.93 ns; (in CO) 0.72 ns; (in CS(C)=O) 1.26 ns; (in ClC(Cl)Cl) 1.31 ns; (in ClCCl) 1.19 ns. Besides, the fluorescence lifetime (in O) amounted to 0.33 ns.

With `CCC1=C(C)C2=Cc3cc(I)cn3[B-](F)(F)[N+]2=C1C`, the fluorescence lifetime reads like this: (in C1CCCCC1) 0.489 ns; (in CC(C)=O) 0.317 ns; (in CCO) 0.349 ns; (in CCOC(C)=O) 0.362 ns; (in CO) 0.324 ns; (in OCC(F)(F)F) 0.308 ns.

`Cc1ccc2c(c1)C1(c3ccccc3-c3ccccc31)c1cc(C)ccc1N2c1ccc(-c2nc(-c3ccccc3)cc(-c3ccccc3)n2)cc1`: the fluorescence lifetime (in O=P(c1ccccc1)(c1ccccc1)c1ccc2oc3ccc(P(=O)(c4ccccc4)c4ccccc4)cc3c2c1) came out at 12 ns.

Consider `CCCCn1c(=O)c2cc3ccc4cccc5ccc(c2c1=O)c3c45`, for which the fluorescence lifetime (in ClC(Cl)Cl) turned out to be 5.48 ns.

Take `CCCCCCCCN1C(=O)c2ccc3c4c(-c5ccc6c(c5)c5ccccc5n6-c5ccccc5)cc5c6c(cc(-c7ccc8c(c7)c7ccccc7n8-c7ccccc7)c(c7ccc(c2c37)C1=O)c64)C(=O)N(CCCCCCCC)C5=O`: the fluorescence lifetime (in ClC(Cl)Cl) was 4.1 ns.

With `COC(=O)c1cc(=O)n(Cc2ccccc2)c2cc(-c3ccc(OC)cc3)sc12`, where the note is “in ClCCl”, the fluorescence lifetime was 2.06 ns.

For `COc1nc(Nc2ccc3c4cccc5cccc(c6cccc2c63)c54)nc(OC)n1`, the fluorescence lifetime (in CCOC(C)=O) was found to be 3.5 ns and the fluorescence lifetime (in CS(C)=O) amounted to 4 ns.

In turn, `COc1ccc(-c2csc(/C(C#N)=C/c3c(Cl)cccc3Cl)n2)cc1` gave a fluorescence lifetime (in CC#N) of 4.07 ns.

Under “in Cc1ccccc1”, `CC(C)c1cc(C(C)C)c(B2c3ccccc3Oc3cc(N4c5ccccc5C5(c6ccccc6-c6ccccc65)c5ccccc54)ccc32)c(C(C)C)c1` gave a fluorescence lifetime of 28 ns.

For the compound `CCCCCCN1C(=O)c2cccc3cc(/N=C\c4c[nH]c5c4ccc4ccccc45)cc(c23)C1=O`, the fluorescence lifetime (in ClC(Cl)Cl) was determined as 11.6 ns.

In turn, `CC(C)(C)c1cc(-c2cc3c(cc(-c4cc(C(C)(C)C)cc(C(C)(C)C)c4)n3-c3ccc(C(=C(c4ccccc4)c4ccccc4)c4ccccc4)cc3)n2-c2ccc(C(=C(c3ccccc3)c3ccccc3)c3ccccc3)cc2)cc(C(C)(C)C)c1` came in with a fluorescence lifetime (in ClCCl) of 1.6 ns.

In the case of `COc1ccc(O)c(-c2nc(C)c3n2CCCC3)c1`, the fluorescence lifetime (in ClCCl) is 1.12 ns.

`c1coc(-c2nc3ccccc3[nH]2)c1`: the fluorescence lifetime is, setting by setting: (in C1CCOC1) 1.47 ns; (in CCCCCC) 1.48 ns; (in CCO) 1.55 ns; (in CCOCC) 1.53 ns; (in CO) 1.58 ns; (in ClC(Cl)Cl) 0.6 ns. Also, the fluorescence lifetime reads like this: (in ClCCl) 1.26 ns; (in O) 1.67 ns.

In the case of `CCCCCCN(CCCCCC)c1ccc(C#Cc2ccc(-c3ccc(C#Cc4ccc(N(CCCCCC)CCCCCC)cc4)cc3)cc2)cc1`, the fluorescence lifetime (in Cc1ccccc1) was determined as 1 ns.

On to `COc1ccc(Oc2ccc3c4c(cccc24)C(=O)N(c2c(C(C)C)cccc2C(C)C)C3=O)cc1`, for which, where the note is “in ClCCl”, the fluorescence lifetime came out at 4.9 ns.

On to `COc1ccc(/C=C/C2=[O+][B-](F)(F)OC(/C=C/c3ccc(OC)c4ccccc34)=C2c2ccccc2)c2ccccc12`, for which the fluorescence lifetime reads like this: (in CC#N) 0.63 ns; (in CC(C)=O) 1.02 ns; (in CCOC(C)=O) 1.28 ns; (in CCOCC) 1.12 ns; (in ClC(Cl)(Cl)Cl) 0.94 ns; (in ClCCl) 1.91 ns.

`COC(=O)[C@]12N=N[C@](C(=O)OC)(C3C4C5C4C5C31)C1C3C4C3C4C12` (stereo partly drawn) showed a fluorescence lifetime (in CC#N) of 166 ns.

`C1=Cc2ccccc2Cc2ccccc21` yielded a fluorescence lifetime (in CC#N) of 3.72 ns.

In the case of `CCOC(=O)CCCCCn1c2ccc(OC)cc2c(=O)c2cc3c(cc21)c(=O)c1cc(OC)ccc1n3CCCCCC(=O)OCC`, the fluorescence lifetime (in CCO) worked out at 13.4 ns.

Turning to `CN1c2ccccc2CCc2ccccc21`, the fluorescence lifetime came to 0.63 ns (in CC#N) and 0.81 ns (in CO).

Consider `Cc1cc(-c2ccc(C(C)(C)C)cc2)cc(C)[o+]1`, for which the fluorescence lifetime reads like this: (in CC#N) 8 ns; (in ClCCl) 2.1 ns.

Take `c1ccc(-c2cc(-c3ccc4ccc5cccc6ccc3c4c56)ccn2)nc1`: the fluorescence lifetime is 6.5 ns (in C1CCOC1); 4.7 ns (in CC#N); 4.6 ns (in CCC#N); 5.5 ns (in CCCC#N); 8.1 ns (in CCCCCC); 3.5 ns (in CCCO). Moreover, the fluorescence lifetime reads like this: (in CCO) 3.5 ns; (in CO) 3.1 ns; (in Cc1ccccc1) 6 ns.

Compound `COC(=O)c1cc(=O)n(Cc2ccccc2)c2cc(-c3ccc(N(C)C)cc3)sc12` yielded a fluorescence lifetime (in ClCCl) of 1.86 ns.

As for `N#Cc1cnc(-c2c3ccccc3c(-c3ccccc3)c3ccccc23)nc1`, the fluorescence lifetime by setting is: (in CCO) 0.25 ns; (in ClCCl) 0.4 ns.

The compound `Nc1ccc2c3cccc4cccc(c5cccc1c52)c43` gave a fluorescence lifetime (in C1CCCCC1) of 5.3 ns; a fluorescence lifetime (in CC#N) of 5.5 ns; a fluorescence lifetime (in CCOC(C)=O) of 5.1 ns; a fluorescence lifetime (in CO) of 5 ns; a fluorescence lifetime (in CS(C)=O) of 5.6 ns; a fluorescence lifetime (in ClCCl) of 6.8 ns.

Turning to `CCCCCCCCCCCCOc1cc2c3c(ccc4c5c(N6CCOCC6)cc6c7c(ccc(c1c34)c75)C(=O)N(C1CCCCC1)C6=O)C(=O)N(C1CCCCC1)C2=O`, the fluorescence lifetime (in ClC(Cl)Cl) was found to be 3.4 ns.

On to `COc1cc(N(c2ccc(C=C(C#N)C#N)c(OC)c2)c2ccc(C=C(C#N)C#N)c(OC)c2)ccc1C=C(C#N)C#N`, for which the fluorescence lifetime was 0.65 ns (in C1COCCO1); 0.14 ns (in CC#N); 0.17 ns (in CC(C)=O); 0.32 ns (in CCOC(C)=O); 0.06 ns (in CN(C)C=O); 0.12 ns (in CO). In addition, the fluorescence lifetime (in Cc1ccccc1) came to 0.03 ns, the fluorescence lifetime (in ClC(Cl)Cl) stood at 0.14 ns and the fluorescence lifetime (in ClCCl) came to 0.09 ns.

For the setting “in O=P(c1ccccc1)(c1ccccc1)c1ccccc1Oc1ccccc1P(=O)(c1ccccc1)c1ccccc1”, `Cc1c(-c2nc(-c3ccccc3)nc(-c3ccccc3)n2)ccc(-n2c3ccccc3c3cc4c(cc32)C2c3ccccc3C4c3ccccc32)c1C` displayed a fluorescence lifetime of 10 ns.

`COc1cc2c(cc1-c1ccc(Cl)cc1)Cc1c3c(c4c(c1-2)-c1cc(OC)c(-c2ccc(Cl)cc2)cc1C4)C(=O)N(CCC(C)C)C3=O` gave a fluorescence lifetime (in C1CCOC1) of 3.05 ns.

For the setting “in O”, `c1ccc2[nH]ccc2c1` yielded a fluorescence lifetime of 4.49 ns.

As for `CCCCCCC(CCCCCC)N1C(=O)c2cccc3c(-c4ccc(N(C)C)cc4)ccc(c23)C1=O`, the fluorescence lifetime (in CCCCCC) stood at 3.47 ns; the fluorescence lifetime (in CCCCCCCCCCCCCC) was determined as 3.61 ns; the fluorescence lifetime (in CCCCCCCCCCCO) is 5.51 ns; the fluorescence lifetime (in CCCCO) turned out to be 3.5 ns; the fluorescence lifetime (in Cc1ccccc1) was 5.12 ns; the fluorescence lifetime (in ClC(Cl)Cl) stood at 6.99 ns.

For `Cc1ccc2c(c1)c(=O)c1ccccc1n2CCCCCC(=O)O`, where the note is “in O”, the fluorescence lifetime is 15.1 ns.

In turn, `CN(C)c1ccc(C2=Cc3ccc4ccccc4[n+]3[B-](F)(F)O2)cc1` yielded a fluorescence lifetime (in ClC(Cl)Cl) of 2.8 ns.
